Here are results for 27 molecules from patent EP4585599A1, “NITROGEN-CONTAINING FUSED RING COMPOUND, INTERMEDIATE THEREOF, PREPARATION METHOD THEREFOR AND USE THEREOF” (Hangzhou Synrx Therapeutics Biomedical Technology Co., Ltd., priority 2022, dated 2024).

Structures can show the parent of a compound that is named as a salt. Where two headings read alike, the source gives them in different places.

One experiment in a line: cells. The note with it: Homo sapiens, DLD-1, 240 h.
Experiment [1] has as its target T1, helicase domain of the Pol θ protein (Homo sapiens, UniProt O75417).
T1 construct: The helicase domain of the Pol θ protein was purified from insect protein expression system; made in house; host or cells: insect protein expression system
Description: Biochemical Activity Assay (ADP Glo Assay) of Pol θ inhibitor, ATPase activity. On the technique in general: In ADP-Glo the light output rises with the ADP produced.

[2] abbreviates: read-out: Cell viability assay IC50 (nM), CTG assay, CellTiter Glo, read on Day 10, cell line not given.
[3] abbreviates: ADP-Glo assay, ATPase activity of Pol θ helicase domain, ssDNA substrate, read-out: Biochemical assay IC50.
The mark [4] stands for this setting: read-out: Cell viability assay IC50 (nM).
[5] abbreviates: read-out: Biochemical assay IC50.

T1 sequence (O75417 102-554 limits assumed): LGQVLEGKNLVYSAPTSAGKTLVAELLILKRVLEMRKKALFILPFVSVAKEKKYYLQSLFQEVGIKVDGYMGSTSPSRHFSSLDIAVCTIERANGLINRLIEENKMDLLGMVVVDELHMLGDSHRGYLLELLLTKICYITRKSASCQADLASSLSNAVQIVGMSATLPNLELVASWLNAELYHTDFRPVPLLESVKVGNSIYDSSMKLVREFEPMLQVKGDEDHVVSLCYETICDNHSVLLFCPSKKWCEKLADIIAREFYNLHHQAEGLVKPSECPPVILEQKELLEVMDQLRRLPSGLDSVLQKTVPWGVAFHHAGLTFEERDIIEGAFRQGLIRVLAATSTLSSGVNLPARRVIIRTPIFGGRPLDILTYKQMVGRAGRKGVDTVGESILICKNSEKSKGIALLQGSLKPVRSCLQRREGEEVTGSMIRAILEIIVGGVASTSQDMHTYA

On to `COc1cnc(Cl)cc1-c1cc(N2CCN(C)C3(CC3)C2=O)ncc1C(=O)Nc1nc2cnc(-c3c(C)nnn3C)cc2s1` [Example 196, 2'-chloro-N-(6-(1,4-dimethyl-1H-1,2,3-triazol-5-yl)thiazolo[4,5-c]pyridin-2-yl)-5'-methoxy-6-(4-methyl-8-oxo-4,7-diazaspiro[2.5]oct-7-yl)-[4,4'-bipyridine]-3-carboxamide], for which the IC50 (commonly the concentration that inhibits the measured activity by half) in “cells” (setting [2]) worked out at 3.83 nM; in experiment [1] (setting [3]), 11.7 nM.

On to `COc1cnc(C(F)F)cc1-c1cc(C)ncc1C(=O)Nc1nc2cnc(N3CCC(O)CC3)nc2s1` [Example 198], for which the concentration for half-maximal inhibition (IC50) was 23.3 nM in “cells” (setting [4]) and 4.23 nM in experiment [1] (setting [5]).

Consider `COc1cnc(C(F)F)cc1-c1cc(C)ncc1C(=O)Nc1nc2cnc(N3CC4(CC(O)C4)C3)nc2s1` [Example 199], for which the IC50 in “cells” (setting [2]) is 31.6 nM; in experiment [1] (setting [3]) it was 7.82 nM.

For `COc1cnc(Cl)c(F)c1-c1cc(C)ncc1C(=O)Nc1nc2cnc(N3CCC(O)CC3)nc2s1` [Example 200], the values for the IC50 (in “cells” (setting [2]); in experiment [1] (setting [3])) were 7.07 nM and 6.51 nM, respectively.

Turning to `COc1cnc(C(F)F)cc1-c1cc(C)ncc1C(=O)Nc1nc2cnc(N3CCCCC3=O)nc2s1` [Example 201, 2'-(difluoromethyl)-5'-methoxy-6-methyl-N-(5-(2-oxopiperidin-1-yl)thiazolo[5,4-d]pyrimidin-2-yl)-[4,4'-bipyridine]-3-carboxamide], the values for the IC50 (in the experiment “cells” (setting [2]); in experiment [1] (setting [3])) were 224 nM and 5.24 nM, respectively.

With `COc1cnc(Cl)cc1-c1cc(C)ncc1C(=O)Nc1nc2ccc(N3CCOCC3=O)nc2s1` [Example 202], the figures for the IC50 (in the experiment “cells” (setting [2]); in experiment [1] (setting [3])) were 38.8 nM and 6.11 nM, respectively.

Regarding `COc1cnc(C(F)F)cc1-c1cc(C)ncc1C(=O)Nc1nc2cnc(N3CCOCC3=O)nc2s1` [Example 204], the IC50 in “cells” (setting [2]) came to 541 nM; in experiment [1] (setting [3]), 8.57 nM.

Take `COc1cnc(Cl)cc1-c1cc(C)ncc1C(=O)Nc1nc2cnc(-c3ncco3)cc2s1` [Example 205, 2'-chloro-5'-methoxy-6-methyl-N-(6-(oxazol-2-yl)thiazolo[4,5-c]pyridin-2-yl)-[4,4'-bipyridine]-3-carboxamide]: the IC50 in “cells” (setting [2]) amounted to 20 nM; in experiment [1] (setting [3]), 5.24 nM.

`COc1cnc(Cl)cc1-c1cc(C)ncc1C(=O)Nc1nc2cnc(-c3nnc(C)o3)cc2s1` [Example 206]: the IC50 in the experiment “cells” (setting [2]) stood at 13.6 nM; in experiment [1] (setting [3]) it was 2.36 nM.

On to `COc1cnc(Cl)cc1-c1cc(C)ncc1C(=O)Nc1nc2cnc(-c3nnnn3C)cc2s1` [Example 208], for which the IC50 in the experiment “cells” (setting [2]) came out at 141 nM; in experiment [1] (setting [3]), 36.3 nM.

As to `COc1cnc(Cl)cc1-c1cc(C)ncc1C(=O)Nc1nc2cnc(-c3nnn(C)n3)cc2s1` [Example 209], the half-inhibitory concentration (IC50) in the experiment “cells” (setting [2]) worked out at 6.82 nM; in experiment [1] (setting [3]), 1.93 nM.

With `COc1cnc(Cl)c(F)c1-c1cc(C)ncc1C(=O)Nc1nc2cnc(-c3c(C)cnn3C)cc2s1` [Example 210], the IC50 is < 1.52 nM in the experiment “cells” (setting [2]) and 2.43 nM in experiment [1] (setting [3]).

Consider `COc1cnc(Cl)c(F)c1-c1cc(C)ncc1C(=O)Nc1nc2cnc(-c3c(C)noc3C)cc2s1` [Example 211], for which the figures for the IC50 (in “cells” (setting [2]); in experiment [1] (setting [3])) were 3.28 nM and 2.51 nM, respectively.

In the case of `COc1cnc(Cl)cc1-c1cc(C)ncc1C(=O)Nc1nc2cnc(-c3c(C)cnn3C(C)C)cc2s1` [Example 212], the IC50 in the experiment “cells” (setting [2]) was 2.23 nM; in experiment [1] (setting [3]), 3.48 nM.

Turning to `COc1cnc(C(F)F)cc1-c1cc(C)ncc1C(=O)Nc1nc2cnc(-c3c(C)nnn3C3CC3)cc2s1` [Example 213, N-(6-(1-cyclopropyl-4-methyl-1H-1,2,3-triazol-5-yl)thiazolo[4,5-c]pyridin-2-yl)-2'-(difluoromethyl)-5'-methoxy-6-methyl-[4,4'-bipyridine]-3-carboxamide], the half-maximal inhibitory concentration (IC50) was found to be 4.13 nM in the experiment “cells” (setting [2]) and 3.63 nM in experiment [1] (setting [3]).

On to `COc1cnc(Cl)cc1-c1cc(C)ncc1C(=O)Nc1nc2cnc(-c3c(C)nnn3C3CC3)cc2s1` [Example 214], for which the 50% inhibitory concentration (IC50) came to 27 nM in the experiment “cells” (setting [4]) and 6.71 nM in experiment [1] (setting [5]).

On to `COc1cnc(C(F)F)cc1-c1cc(C)ncc1C(=O)Nc1nc2cnc(-c3c(C)nnn3C)c(F)c2s1` [Example 215, 2'-(difluoromethyl)-N-(6-(1,4-dimethyl-1H-1,2,3-triazol-5-yl)-7-fluorothiazolo[4,5-c]pyridin-2-yl)-5'-methoxy-6-methyl-[4,4'-bipyridine]-3-carboxamide], for which the IC50 is 2.92 nM in “cells” (setting [2]) and 3.11 nM in experiment [1] (setting [3]).

For `COc1cnc(C(F)F)cc1-c1cc(C)ncc1C(=O)Nc1nc2cnc(-c3nncn3C)cc2s1` [Example 218], the values for the half-inhibitory concentration (IC50) (in the experiment “cells” (setting [4]); in experiment [1] (Biochemical assay IC50 (nM))) were 656 nM and 31.1 nM, respectively.

Take `COc1cnc(Cl)cc1-c1cc(C)ncc1C(=O)Nc1nc2cnc(-c3c(C)cnn3CCN(C)C)cc2s1` [Example 219, 2'-chloro-N-(6-(1-(2-(dimethylamino)ethyl)-4-methyl-1H-parazol-5-yl)thiazolo[4,5-c]pyridin-2-yl)-5'-methoxy-6-methyl-[4.4'-bipyridine]-3-carboxamide trifluoroacetate]: the half-maximal inhibitory concentration (IC50) in the experiment “cells” (setting [4]) was 63.1 nM; in experiment [1] (Biochemical assay IC50 (nM)), 3.31 nM.

For the molecule `COc1cnc(Cl)cc1-c1cc(C)ncc1C(=O)Nc1nc2cnc(-c3c(C)cnn3CCO)cc2s1` [Example 220], the values for the IC50 (in “cells” (setting [2]); in experiment [1] (setting [3])) were 22.2 nM and 2.51 nM, respectively.

On to `COc1cnc(Cl)cc1-c1cc(C)ncc1C(=O)Nc1nc2cnc(-c3nn(CCO)cc3C)cc2s1` [Example 221], for which the IC50 in the experiment “cells” (setting [2]) stood at 1850 nM; in experiment [1] (setting [3]), 4.78 nM.

With `COc1cnc(Cl)cc1-c1cc(C)ncc1C(=O)Nc1nc2ccc(-c3c(C)nnn3C)cc2s1` [Example 222, 2'-chloro-N-(6-(1,4-dimethyl-1H-1,2,3-triazol-5-yl)benzo[d]lthiazol-2-yl)-5'-methoxy-6-methyl-[4.4'-bipyridine]-3-carboxamide], the results for the IC50 (in “cells” (setting [4]); in experiment [1] (Biochemical assay IC50 (nM))) were 9.62 nM and 4.36 nM, respectively.

As for `COc1cnc(C(F)F)cc1-c1cc(C)ncc1C(=O)Nc1nc2ccc(-c3c(C)nnn3C)cc2s1` [Example 223], the half-inhibitory concentration (IC50) stood at 10 nM in the experiment “cells” (setting [2]) and 2.51 nM in experiment [1] (setting [3]).

Regarding `COc1cnc(Cl)c(F)c1-c1cc(C)ncc1C(=O)Nc1nc2ccc(-c3c(C)nnn3C)cc2s1` [Example 224], the figures for the half-inhibitory concentration (IC50) (in the experiment “cells” (setting [2]); in experiment [1] (setting [3])) were 3.16 nM and 3.98 nM, respectively.

As for `COc1cnc(Cl)cc1-c1cc(C)ncc1C(=O)Nc1nc2cc3c(cc2s1)C(=O)N(C)CCC3` [Example 225, 2'-chloro-5'-methoxy-6-methyl-N-(6-methyl-5-oxo-6,7,8,9-tetrahydro-5H-thiazolo[4',5': 4,5]benzo[1,2-c]aza-2-yl)-[4,4'-bipyridine]-3-carboxamide], the IC50 is 56.2 nM in “cells” (setting [4]) and 21.1 nM in experiment [1] (Biochemical assay IC50 (nM)).

Consider `COc1cnc(Cl)cc1-c1cc(C)ncc1C(=O)Nc1nc2cnc(-c3c(C(F)F)nnn3C)cc2s1` [Example 226, 2'-chloro-N-(6-(4-(difluoromethyl)-1-methyl-1H-1,2,3-triazol-5-yl)thiazolo[4,5-c]pyridin-2-yl)-5'-methoxv-6-methyl-[4.4'-bipyridine]-3-carboxamide], for which the IC50 in “cells” (setting [4]) was 8.46 nM; in experiment [1] (Biochemical assay IC50 (nM)), 4.02 nM.

For `COc1cnc(Cl)cc1-c1cc(C)ncc1C(=O)Nc1nc2cc(F)c(-c3c(C)nnn3C)nc2s1` [Example 227, 2'-chloro-N-(5-(1,4-dimethyl-1H-1,2,3-triazol-5-yl)-6-fluorothiazolo[5,4-b]pyridin-2-yl) -5'-methoxy-6-methyl-[4,4'-bipyridine]-3-carboxamide], the IC50 turned out to be 112 nM in the experiment “cells” (setting [2]) and 20.7 nM in experiment [1] (setting [3]).
